test system: Escherichia coli DC-2; assay: in vitro antibacterial activity, agar dilution MIC; assay type: cell-based; details: Organism code SS; BHI agar, 35-37° C., 20 to 24 hours
Description: (§1) Representative compounds of the present invention were assayed in vitro for antibacterial activity as follows: Twelve petri dishes containing successive aqueous dilutions of the test compound mixed with 10 mL of sterilized Brain Heart Infusion (BHI) agar (Difco 0418-01-5) were prepared. Each plate was inoculated with 1:100 (or 1:10 for slow-growing strains, such as Micrococcus and Streptococcus) dilutions of up to 32 different microorganisms, using a Steers replicator block. […] In addition, a control plate, using BHI agar containing no test compound, was prepared and incubated at the beginning and end of each test.
(§2) An additional plate containing a compound having known susceptibility patterns for the organisms being tested and belonging to the same antibiotic class as the test compound was also prepared and incubated as a further control, as well as to provide test-to-test comparability.
(§3) After incubation, each plate was visually inspected. The minimum inhibitory concentration (MIC) was defined as the lowest concentration of drug yielding no growth, a slight haze, or sparsely isolated colonies on the inoculum spot as compared to the growth control.

| Structure (SMILES) | minimum inhibitory concentration (MIC) |
| --- | --- |
| CC[C@H]1OC(=O)[C@H](C)C(=O)[C@H](C)[C@@H](O[C@@H]2O[C@H](C)C[C@H](N(C)CCF)[C@H]2O)[C@](C)(OCC=Cc2cnc3ccccc3c2)C[C@@H](C)C(=O)[C@H](C)[C@H]2NC(=O)O[C@@]21C [Example 7] | > 100 |

test system: Streptococcus Pheumoniae 5979; assay: in vitro antibacterial activity, agar dilution MIC; assay type: cell-based; details: Organism code ZZ; BHI agar, 35-37° C., 20 to 24 hours
Description: as §1, §2, §3

| Structure (SMILES) | minimum inhibitory concentration (MIC) |
| --- | --- |
| C=C(CN(C)[C@H]1C[C@@H](C)O[C@@H](O[C@@H]2[C@@H](C)C(=O)[C@@H](C)C(=O)O[C@H](CC)[C@@]3(C)OC(=O)N[C@@H]3[C@@H](C)C(=O)[C@H](C)C[C@@]2(C)OCC=Cc2cnc3ccccc3c2)[C@@H]1O)C(=O)OC [Example 18] | 128 |
| C=C(C)CN(C)[C@H]1C[C@@H](C)O[C@@H](O[C@@H]2[C@@H](C)C(=O)[C@@H](C)C(=O)O[C@H](CC)[C@@]3(C)OC(=O)N[C@@H]3[C@@H](C)C(=O)[C@H](C)C[C@@]2(C)OCC=Cc2cnc3ccccc3c2)[C@@H]1O [Example 19] | 128 |
| CC[C@H]1OC(=O)[C@H](C)C(=O)[C@H](C)[C@@H](O[C@@H]2O[C@H](C)C[C@H](N(C)Cc3cccnc3)[C@H]2O)[C@](C)(OCC=Cc2cnc3ccccc3c2)C[C@@H](C)C(=O)[C@H](C)[C@H]2NC(=O)O[C@@]21C [Example 14] | > 128 |
| CC[C@H]1OC(=O)[C@H](C)C(=O)[C@H](C)[C@@H](O[C@@H]2O[C@H](C)C[C@H](N(C)CC#N)[C@H]2O)[C@](C)(OCC=Cc2cnc3ccccc3c2)C[C@@H](C)C(=O)[C@H](C)[C@H]2NC(=O)O[C@@]21C [Example 9] | 128 |
| CCCN(C)[C@H]1C[C@@H](C)O[C@@H](O[C@@H]2[C@@H](C)C(=O)[C@@H](C)C(=O)O[C@H](CC)[C@@]3(C)OC(=O)N[C@@H]3[C@@H](C)C(=O)[C@H](C)C[C@@]2(C)OCC=Cc2cnc3ccccc3c2)[C@@H]1O [Example 16] | 128 |
| CC[C@H]1OC(=O)[C@H](C)C(=O)[C@H](C)[C@@H](O[C@@H]2O[C@H](C)C[C@H](N(C)CC3CC3)[C@H]2O)[C@](C)(OCC=Cc2cnc3ccccc3c2)C[C@@H](C)C(=O)[C@H](C)[C@H]2NC(=O)O[C@@]21C [Example 15] | > 128 |

Reference: patent US6034069A, “3-'N-modified 6-O-substituted erythromycin ketolide derivatives having antibacterial activity” (priority 1998, dated 2000)
